This note sets out measurements from the OPERA property sets (Mansouri et al. 2018).

Where a SMILES comes first, the peptide text is derived from it.

The term logP denotes a log measure of how a compound divides between an organic and an aqueous phase. `Cc1cccc(Nc2ccncc2S(=O)(=O)NC(=NC#N)NC(C)C)c1` returned a logP of 1.86.

`Cc1[nH]c2ccccc2c1Cc1n[nH]c(=S)n1-c1ccccc1` had a logP of 2.55.

Consider `CCC(C)C(NC(=O)C1CCCN1)C(=O)O` (stereo not drawn) (H-Pro-Ile-OH; configuration not given here), for which the logP is -2.56.

For `CC(=O)OC(C)(C)C1CCC2(C)CCCC3(CO3)C2C1` (stereo not given), the logP is 4.08.

In turn, `Cc1ccc(OC(=O)CNC(=O)c2ccccc2)c(C)c1` gave a logP of 3.4.

With `CC(C)c1cccc(C(C)C)c1NC(=O)CC(=O)C1(c2ccccc2)CCCC1`, the logP is 4.55.

`N#CC(C#N)=NNc1cccc(Cl)c1Cl` showed a logP of 3.85.

The compound `OCC1OC(Oc2ccc(F)cc2)C(O)C(O)C1O` (stereo not given) displayed a logP of -0.42.

Regarding `Oc1cc(O)c2c(c1)OC(c1ccc(O)c(O)c1)C(OCCCc1ccccc1)C2` (stereo not given), the logP amounted to 3.78.

`Cc1ccc(CO)c(C=NNC(=O)c2ccc(C(C)(C)C)cc2)c1O` gave a logP of 4.73.

In the case of `Nc1nnnn1-c1ccc(O)cc1`, the logP stood at 0.33.

Compound `CC12CCC(c3c1ssc3=S)C2(C)C` (stereo not given) gave a logP of 3.8.

On to `O=C(O)CCCCON=C(c1cccc(C(F)(F)F)c1)c1ccncn1`, for which the logP is 3.14.

For the compound `OCCCCCCCCNc1[nH]cnc2ncnc1-2`, the logP amounted to 2.23.

On to `COC1CC(OC2C(O)CC(OC3CCC4(C)C(CCC5C4CC(O)C4(C)C(C6=CC(=O)OC6)CCC54O)C3)OC2C)OC(C)C1OC1CC(O)C(O)C(C)O1` (stereo not given), for which the lipophilicity (logP) stood at 1.8.

Take `CCCCC(=O)OCC(=O)C1(O)Cc2c(O)c3c(c(O)c2C(OC2CC(N)C(O)C(C)O2)C1)C(=O)c1c(OC)cccc1C3=O` (stereo not given): the logP came to 2.56.

Compound `O=C(Nc1ccccc1C(=O)O)c1ccccc1` showed a logP of 3.54.

As for `Cc1ccc(Nc2ccncc2S(=O)(=O)NC(=NC#N)NC(C)C)cc1`, the logP stood at 1.91.

For `Cc1cc2c(ccc3c(C)cc(=O)n(C)c32)o1`, the lipophilicity (logP) was found to be 3.08.

In turn, `CCN(CC)CCC(=O)Nc1c(C)cc(N)cc1C` registered a logP of 0.93.

With `CCC(C)C(N)C(=O)NC(Cc1ccc(O)cc1)C(=O)NC(C(=O)O)C(C)C` (stereo not drawn) (H-Ile-Tyr-Val-OH; configuration not given here), the logP was -1.77.

`CCCCCOc1cccc(NC(=O)OCCN2CCCCC2)c1` showed a logP of 5.5.

Take `CCN(CC)CCC(=O)Nc1ccc(N)cc1`: the logP was found to be 0.8.

As to `Clc1ccccc1CNc1ncnc2nc[nH]c12`, the logP was found to be 2.76.

Take `O=c1cc(CI)occ1O`: the logP is 0.67.

For the compound `CC(C)Nc1ncnc2c1ncn2C1OC(CO)C(O)C1O` (stereo not given), the logP is 0.48.

`CCCCOCCCCCNC(=O)NC12CC3CC(CC(C3)C1)C2` yielded a logP of 5.

The compound `COc1ccc2cc(C(C)C(=O)OCCOC(C)=O)ccc2c1` (stereo not given) displayed a logP of 3.5.

Consider `NC(=O)C(CCN1CCCCC1)c1ccccc1Cl` (stereo not given), for which the lipophilicity (logP) turned out to be 2.46.

In turn, `CC(C)NCC(O)COc1ccccc1C1CCCCC1` (stereo not given) yielded a logP of 3.68.

In turn, `COCCOC(=O)C1=C(C)NC(C)=C(C(=O)OC(C)C)C1c1cccc2c1OCO2` (stereo not given) had a logP of 3.94.

In turn, `O[C@@H](c1cc(C(F)(F)F)nc2c(C(F)(F)F)cccc12)[C@H]1CCCCN1` came in with a logP of 4.49.

The compound `Cc1ccc(C)c(-n2nnnc2N)c1` registered a logP of 1.45.

Turning to `CC(=O)Nc1cc(NCC(C)O)c(Cl)cc1N=Nc1ccc([N+](=O)[O-])cc1Cl` (stereo not given), the logP came to 4.

With `CCOc1ccc(NC(=O)OCCN2CCCCC2)cc1`, the logP turned out to be 3.41.

Consider `CCOC(=O)C1=C(C)NC(C)=C(C(=O)OC(C)C)C1c1cccc2c1OCO2` (stereo not given), for which the logP came out at 4.71.

In turn, `O=C(O)CCCON=C(c1ccccc1)c1cncnc1` came in with a logP of 2.2.

In turn, `O=S(=O)(NC(=S)N1CCCCC1)c1cnccc1NC1CCCCCCC1` came in with a log partition coefficient (logP) of 4.5.

Turning to `Nc1ncnc2c1ncn2C1OC(CCl)C(O)C1O` (stereo not given), the logP was -0.06.

In turn, `COC(=O)c1cc(NC(=O)Cn2c(C)nc3ccccc3c2=O)cc(C(=O)OC)c1` showed a logP of 2.98.

Turning to `O=c1cc(CCl)oc(Br)c1O`, the logP came out at 1.08.

Take `CCN(CC)CCNC(=O)c1c(C)cc(N)cc1C`: the logP amounted to 0.98. This logP and that of the compound before are within 0.2 log units of each other.

The compound `CCOC(=O)N1COCc2c1ccc1cc3ccc4c(c3nc21)COCN4C(=O)OCC` registered a lipophilicity (logP) of 2.5.

As to `CCc1cccc(COC(=O)C2C(C=C(C)C(=O)OC)C2(C)C)c1` (stereo not given), the logP worked out at 5.42.

`Cc1cc2ccc3occ(C)c3c2oc1=O` returned a logP of 2.97.

In turn, `CC1NCCc2c1[nH]c1ccccc21` (stereo not given) registered a logP of 2.06.

Take `CCO[PH](=O)O`: the logP is -2.7.

`Cc1cc(=O)n(C)c2c1cc(C)c1occ(C)c12` gave a log partition coefficient (logP) of 3.3.

Compound `CCCNC(=O)CCC(=O)NCc1c(O)c(=O)cc(C)n1C` registered a logP of -0.7.

Take `COC(=O)C(C)NP(=O)(OCC1C=CC(n2cc(C)c(=O)[nH]c2=O)O1)Oc1cccc(C(F)(F)F)c1` (stereo not given): the logP is 1.57.

`C[C@@H]1CN(c2c(F)c(N)c3c(=O)c(C(=O)O)cn(C4CC4)c3c2F)C[C@H](C)N1` came in with a logP of -0.02.

With `S=c1nccc[nH]1`, the logP was -1.11.

`CC(C)CC(NC(=O)C(CC(C)C)NC(=O)C(NC(=O)C(C)N)C(C)C)C(=O)O` (stereo not given) (H-AVLL-OH; configuration not given here) had a logP of -1.74.

With `CCOc1cccc2nc(N)nc(N)c12`, the log partition coefficient (logP) stood at 1.69.

In turn, `CCCCNC1CC(OC2CC(O)(C(=O)CO)Cc3c(O)c4c(c(O)c32)C(=O)c2c(OC)cccc2C4=O)OC(C)C1O` (stereo not given) came in with a logP of 2.12.

As for `CCOC(=O)c1cccc2c1CC(c1ccc(OC)cc1)C(OC(C)=O)C(=O)N2CCN(C)C` (stereo not given), the logP turned out to be 4.2.

Take `OCCCCCCCCCNc1[nH]cnc2ncnc1-2`: the logP is 2.75.

As for `CCCNC(=O)c1cccc2nc(N)nc(N)c12`, the lipophilicity (logP) is 0.83.

In turn, `CC(C)CC(N)C(=O)NC(CC(C)C)C(=O)NC(CC(C)C)C(=O)O` (stereo not drawn) (H-Leu-Leu-Leu-OH; configuration not given here) came in with a logP of -0.94.

For the compound `Cc1csc(Cl)c1NC1=NCCN1`, the logP was 1.18.

`CC1CCC(C)N1C(=O)Nc1ccccc1` (stereo not given) yielded a logP of 2.33.

`CSCCC(N)C(=O)NC(C(=O)O)C(C)C` (stereo not drawn) (H-Met-Val-OH; configuration not given here): the logP is -2.53.

For `Nc1nc(N)c2c(Oc3ccccc3)cccc2n1`, the logP was 2.78.

Compound `CC1CCC2CC(=O)N(CCc3ccccc3)C3OC4(C)CCC1C23OO4` (stereo not given) displayed a logP of 3.94.

Consider `C=CCNC(=O)c1[nH]cc(-c2ccc(Cl)cc2)c1N1CCOCC1`, for which the logP stood at 3.7.

`COc1ccccc1-n1nnnc1N` registered a logP of 0.56.

Compound `CC(C)CC(NC(=O)C(C)N)C(=O)NC(CC(C)C)C(=O)NCC(=O)NC(Cc1ccccc1)C(=O)O` (stereo not given) (H-ALLGF-OH; configuration not given here) showed a logP of -0.63.

For the compound `CCCNCc1ccc(C)cc1`, the logP is 2.96.

Compound `Cc1ccc(C)c(OCC2CN=C(N)O2)c1` (stereo not given) yielded a logP of 2.29.

`Cc1ccc(C(=O)OCCCn2ccc(=O)c(O)c2C)cc1` returned a logP of 1.79.

Consider `Clc1ccccc1N1CCN(CCn2nnc3ccccc32)CC1`, for which the logP is 3.35.

The compound `CC(=O)OC1C(C)OC(n2cc(F)c(=O)[nH]c2=O)C1OC(C)=O` (stereo not given) displayed a logP of -0.02.

Regarding `COC(=O)C(C)NP(=O)(OCC1C=CC(n2cc(C)c(=O)[nH]c2=O)O1)Oc1cccc(C(C)=O)c1` (stereo not given), the logP came to 0.92.

The compound `Cc1cc2c(C)cc3oc(=O)cc(C)c3c2o1` registered a log partition coefficient (logP) of 3.25.

On to `O=C1c2ccccc2-c2nnc(-c3ccc(O)cc3)cc21`, for which the logP is 2.88.

For the compound `Cc1c(C)c2cc(C)c3occc3c2oc1=O`, the logP turned out to be 3.23.

Compound `CON(C)C(=O)Nc1ccc(NS(C)(=O)=O)cc1` registered a logP of 0.14.

In turn, `Cc1ccc(CO)c(C=NNC(=O)c2ccc(O)cc2)c1O` came in with a lipophilicity (logP) of 2.56.

Take `CCCNC(=O)c1[nH]cc(-c2ccc(Cl)cc2)c1N1CCOCC1`: the logP turned out to be 4.2.

Regarding `C=CCON=C(C)c1cccc(Oc2nc(OC)cc(OC)n2)c1C(=O)OC`, the logP amounted to 3.13.

For the compound `COc1ccc(C2=NC(C(=O)O)CS2)c(O)c1` (stereo not given), the logP amounted to 1.5.

`O=C1N=C(N2CCOCC2)CN1c1ccc(Cl)c(Cl)c1` registered a logP of 1.9.

For `Cc1cc2c(ccc3cc(C)c(=O)oc32)o1`, the log partition coefficient (logP) was 2.97.

Turning to `Nc1n[n+]([O-])c2ccccc2[n+]1[O-]`, the logP was -0.3.

The compound `CC(C)CC(NC(=O)C(Cc1c[nH]c2ccccc12)NC(=O)C(N)Cc1c[nH]c2ccccc12)C(=O)O` (stereo not drawn) (H-Trp-Trp-Leu-OH; configuration not given here) came in with a logP of 0.36.

In turn, `CCC(C)C(NC(=O)C(N)Cc1ccccc1)C(=O)NC(C(=O)O)C(C)O` (stereo not drawn) (H-Phe-Ile-Thr-OH; configuration not given here) came in with a logP of -1.95.

On to `CCOC1N=C(c2ccccc2)c2cc(Cl)ccc2N(CCCl)C1=O` (stereo not given), for which the logP was found to be 3.95.

Turning to `CC(=O)OC(C)(C)C1CCC2(C)CCCC(CO)C2C1` (stereo not given), the log partition coefficient (logP) was determined as 3.49.

The compound `CCCNc1nc(CCC)nc(N2CCOCC2)n1` showed a logP of 2.7.

For `COc1ccc(C2Cc3cc(OC(F)F)ccc3N(CCN(C)C)C(=O)C2OC(C)=O)cc1` (stereo not given), the logP is 3.8.

For `CCOc1ccc(N)c(OCC)c1`, the logP worked out at 2.19.

With `C=CC(=O)OCCOCCO`, the logP was -0.3.

`O=c1cc(CBr)occ1O` gave a logP of 0.61.

In turn, `CCCN(CCCCC(NC(C)=O)C(=O)NCc1ccccc1)C(=O)N(CCCl)N=O` (stereo not given) showed a logP of 1.99.

Take `CCOc1cccc(NC(=O)OCCN2CCCCC2)c1`: the log partition coefficient (logP) was determined as 3.77.

Turning to `CCC(C)(C)c1ccc(OCC2CN=C(N)O2)cc1` (stereo not given), the logP is 3.69.

Consider `CC(C)(C)Nc1nc(N)nc(Cl)n1`, for which the logP came to 1.94.

Turning to `Cc1cccc(C)c1/C=C/c1c[nH]cn1`, the logP was determined as 3.35.

`COC(=O)C(C)NP(=O)(OCC1C=CC(n2cc(C)c(=O)[nH]c2=O)O1)Oc1cccc(F)c1` (stereo not given) returned a log partition coefficient (logP) of 1.08.

The compound `NS(=O)(=O)c1ncncc1-c1ccccc1` had a logP of 0.5.

As to `NC(=O)Cc1ccc(O)cc1`, the logP was -0.09.

As for `Cc1cnc2ccc3c(nc(N)n3C)c2n1`, the logP worked out at 1.01.

Turning to `CN1CC(O)N(C(=O)NC2CCCCC2)C1=O` (stereo not given), the log partition coefficient (logP) came out at 1.87.

As to `CC(=O)OCCCOC(=O)C(C)c1cccc(C(=O)c2ccccc2)c1` (stereo not given), the logP is 3.6.

As to `CC(C)NC(CO)C(O)c1ccccc1` (stereo not given), the logP is 1.19.
